# Source: ChEMBL document CHEMBL1201862, “PubChem BioAssay data set” (2004)
#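 Dose response: 5 concentrations. Exposure: 48 h. Format: 96-well plates. Endpoint: linear interpolation; highest concentration if not reached. GI50 = concentration required for 50% inhibition of growth.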 Active and inactive are the calls of the source. No stated cut-off is given here; in the data, active = GI50 up to about 1.1 µM and inactive = higher.
# How the values were obtained:
# Experiment in all cases: inhibition of tumour cell growth, NCI panel, 48 h
# MDA-MB-435 = test system: MDA-MB-435
# COLO 205 = test system: COLO 205
# CCRF-CEM = test system: CCRF-CEM
# RXF 393 = test system: RXF 393
# UACC-257 = test system: UACC-257
# SF-539 = test system: SF-539
# IGROV-1 = test system: IGROV-1
# SN12C = test system: SN12C
# M14 = test system: M14
# SNB-19 = test system: SNB-19
# SW-620 = test system: SW-620
# HCT-116 = test system: HCT-116
# T47D = test system: T47D
# LOX IMVI = test system: LOX IMVI
# NCI-H522 = test system: NCI-H522
# HOP-92 = test system: HOP-92
# TK-10 = test system: TK-10
# 786-0 = test system: 786-0
# A498 = test system: A498
# SK-MEL-2 = test system: SK-MEL-2
Compound,GI50 (MDA-MB-435),GI50 (COLO 205),GI50 (CCRF-CEM),GI50 (RXF 393),GI50 (UACC-257),GI50 (SF-539),GI50 (IGROV-1),GI50 (SN12C),GI50 (M14),GI50 (SNB-19),GI50 (SW-620),GI50 (HCT-116),GI50 (T47D),GI50 (LOX IMVI),GI50 (NCI-H522),GI50 (HOP-92),GI50 (TK-10),GI50 (786-0),GI50 (A498),GI50 (SK-MEL-2)
COc1ccc2c(c1)[C@@]13CCN4CC5=CCO[C@H]6CC(=O)N2[C@H]1[C@H]6[C@H]5C[C@H]43,> 100 µM (inactive),84.9 µM (inactive),88.5 µM (inactive),> 100 µM (inactive),> 100 µM (inactive),> 100 µM (inactive),34.9 µM (inactive),> 100 µM (inactive),> 100 µM (inactive),> 100 µM (inactive),> 100 µM (inactive),> 100 µM (inactive),> 100 µM (inactive),> 100 µM (inactive),72.3 µM (inactive),95.7 µM (inactive),76.6 µM (inactive),> 100 µM (inactive),69.2 µM (inactive),> 100 µM (inactive)
CCCCc1cc2c(cc1O)CCC1C2CC[C@@]2(C)C1CC[C@@H]2O (stereo not given in full),16.9 µM (inactive),24.7 µM (inactive),21.5 µM (inactive),2.89 µM (inactive),15.4 µM (inactive),26.2 µM (inactive),22 µM (inactive),18.7 µM (inactive),18.9 µM (inactive),25.5 µM (inactive),20.2 µM (inactive),14.3 µM (inactive),8.97 µM (inactive),16.6 µM (inactive),14 µM (inactive),20 µM (inactive),18.3 µM (inactive),22.8 µM (inactive),21.8 µM (inactive),18.4 µM (inactive)
CC(=O)NC1C(OCc2ccccc2)OC(CO)C(O)C1OCC(=O)N1CCCC1C(=O)NC(CCC(=O)NCCCCCNc1c2ccccc2nc2cccc([N+](=O)[O-])c12)C(N)=O (stereo not given),0.0154 µM (active),0.0144 µM (active),0.07 µM (active),0.00938 µM (active),0.0481 µM (active),0.0456 µM (active),0.232 µM (active),0.011 µM (active),0.0228 µM (active),0.028 µM (active),0.00399 µM (active),0.00433 µM (active),0.578 µM (active),0.166 µM (active),0.0353 µM (active),0.0252 µM (active),0.0508 µM (active),0.0131 µM (active),0.0568 µM (active),0.019 µM (active)
NC1CC(=O)c2ccccc21 (stereo not given),> 100 µM (inactive),> 100 µM (inactive),> 100 µM (inactive),> 100 µM (inactive),> 100 µM (inactive),> 100 µM (inactive),> 100 µM (inactive),> 100 µM (inactive),> 100 µM (inactive),> 100 µM (inactive),> 100 µM (inactive),> 100 µM (inactive),> 100 µM (inactive),> 100 µM (inactive),> 100 µM (inactive),> 100 µM (inactive),> 100 µM (inactive),> 100 µM (inactive),> 100 µM (inactive),> 100 µM (inactive)
N#C/C(C(=O)NCc1ccccc1)=C(/N)N1CCCC1,> 100 µM (inactive),> 100 µM (inactive),> 100 µM (inactive),> 100 µM (inactive),> 100 µM (inactive),> 100 µM (inactive),> 100 µM (inactive),> 100 µM (inactive),> 100 µM (inactive),> 100 µM (inactive),> 100 µM (inactive),> 100 µM (inactive),> 100 µM (inactive),> 100 µM (inactive),> 100 µM (inactive),97.7 µM (inactive),> 100 µM (inactive),> 100 µM (inactive),94.8 µM (inactive),> 100 µM (inactive)
